Patent US10047051B2, “Substituted pyridines and method of use” (AbbVie S.á{acute over (.)}r.l., priority 2015, dated 2018)

Experiments:
Type in all cases: cell-based
[1] = target: T1, CFTR ΔF508 mutant (Homo sapiens, UniProt P13569, DEL508-508); experiment: YFP-halide influx assay for the CFTR-ΔF508 mutation (CFBE41o- cells); settings: forskolin 10.67 μM; for EC50: from (1−F/F0) vs concentration plot
T1 construct: expressed in transfected cells; host or cells: CFBE41o- cells, adenoviral transduction
Procedure, shortened: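 EC50 derived from plotting 1−F/F0 (fluorescence 36 s after iodide injection over pre-injection value) against compound concentration. Cells: CFBE41o- transduced with ΔF508-CFTR and YFP quench reporter, corrected 24 h at 27° C or by a CFTR modulator at 37° C.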

[2] = target: T2, CFTR G551D mutant (Homo sapiens, UniProt P13569, G551D); experiment: YFP-halide influx assay for the CFTR-G551D mutation (HEK293 cells); settings: forskolin 10.67 μM
T2 construct: expressed in transfected cells; host or cells: HEK293 cells, reverse transfection with plasmids
Procedure, shortened: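 Channel opening read as I⁻-driven quenching of a YFP H148Q/I152L/F47L reporter over 7 s post-injection, expressed as 1−F/F0 and fitted against concentration for EC50. Cells were HEK293 co-transfected at seeding with G551D CFTR plus reporter, then grown 24 h at 37 °C, 5% CO2.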

[3] = target: G551D CFTR (Homo sapiens, UniProt P13569, G551D); experiment: TECC assay, FRT-CFTR G551D protocol; settings: FRT cells stably transfected with G551D CFTR, high expression cells, increase in Isc after forskolin
Method: For G551D recordings, Fischer Rat Thyroid (FRT) cells stably transfected with G551D CFTR (a low CFTR-G551D expressing cell line and a high expressing CFTR-G551D cell line from Rosalind Franklin University of Medicine and Science, North Chicago, Ill.) are plated on Transwell® supports (Costar 6.5 mm diameter, 0.4 μm pore size). The cells are grown for 8-10 days under liquid-liquid interface conditions prior to electrophysiological readings. For electrophysiological recording, the FRT-G551D cells are mounted in the TECC heating plate for electrophysiological measurement and kept at 37° C. The epithelia are bathed in HEPES buffered culturing medium without FBS on both the basolateral and apical sides. Apical amiloride is used to inhibit the endogenous ENaC currents while forkolin is applied on both apical and basolateral side to stimulate CFTR. After forskolin triggering, compounds are added on both sides to test their potential for increasing CFTR gating. Measurements are done during a 10 minute timeframe with recordings every 2 minutes. The increase in Isc is used as a measure for the increased CFTR activity, EC50 values can be generated by measuring impact of different concentrations of compound on Isc on the cells, for this purpose each transwell is treated with a different compound concentration. Inh-172, an inhibitor specific for CFTR, is used to test the specificity of the tested compounds.

[4] = target: T3, CFTR-G178R (Homo sapiens, UniProt P13569, G178R); experiment: YFP-halide influx assay for the CFTR-G178R
T3 construct: expressed in transfected cells
Source text: (§1) The YFP halide influx assay measured the functionality of the cystic fibrosis Transmembrane Conductance regulator (CFTR) channels. The assay was used to evaluate the capacity of compounds to increase the channel opening of existing mutant CFTR channels in the membrane. It makes use of the observation that the yellow fluorescent protein (YFP) variant YFP H148Q, I152L, F47L has its fluorescence substantially quenched by halide ions like Cl^− and I^− (Galietta, L. J. V., Haggie, P. M., Verkman, A. S., 2001. Green fluorescent protein-based halide indicators with improved chloride and iodide affinities. FEBS Lett. 499, 220-224. doi:10.1016/S0014-5793(01)02561-3).
(§2) For this purpose, HEK293-cells were seeded in 96 well plates. During seeding, the cells were reverse-transfected with plasmid vectors that direct the expression of the CFTR G551D mutant and of the YFP reporter. Cells were incubated at 37° C., 5% CO2 for 24 hours so as to allow for sufficient expression of the CFTR protein.
(§3) The I^−-induced quenching of fluorescence was recorded immediately after injection of I^− for 7 seconds. The capacity of a compound to increase the channel opening was directly correlated with the decrease in fluorescence, and was expressed as (1−(fluorescence after 7 seconds (F)/fluorescence before injection (F0))) and an EC50 was derived from a (1−F/F0) vs compound concentration plot.
(§4) Similar YHA assays were developed for other channel gating defective or channel conductance defective CFTR mutants to determine effect of compound on channel activity. Examples of mutants are G178R, G1349D, S549N, R117H, R334W. This assay is also used for additional class I CFTR mutants, including G542X, W1282X; class II mutants including N1303K, and for class III mutants including S1251N; or wild-type CFTR.

[5] = target: T4, CFTR-G1349D (Homo sapiens, UniProt P13569, G1349D); experiment: YFP-halide influx assay for the CFTR-G1349D
T4 construct: expressed in transfected cells
Source text: as §1, §2, §3, §4

[6] = target: T5, CFTR-S549N (Homo sapiens, UniProt P13569, S549N); experiment: YFP-halide influx assay for the CFTR-S549N; set-up: % Activation: concentration or dose not given beside the values
T5 construct: expressed in transfected cells
Source text: as §1, §2, §3, §4

[7] = target: T6, CFTR-R117H (Homo sapiens, UniProt P13569, R117H); experiment: YFP-halide influx assay for the CFTR-R117H
T6 construct: expressed in transfected cells
Source text: as §1, §2, §3, §4

T4 sequence (P13569 whole entry G1349D): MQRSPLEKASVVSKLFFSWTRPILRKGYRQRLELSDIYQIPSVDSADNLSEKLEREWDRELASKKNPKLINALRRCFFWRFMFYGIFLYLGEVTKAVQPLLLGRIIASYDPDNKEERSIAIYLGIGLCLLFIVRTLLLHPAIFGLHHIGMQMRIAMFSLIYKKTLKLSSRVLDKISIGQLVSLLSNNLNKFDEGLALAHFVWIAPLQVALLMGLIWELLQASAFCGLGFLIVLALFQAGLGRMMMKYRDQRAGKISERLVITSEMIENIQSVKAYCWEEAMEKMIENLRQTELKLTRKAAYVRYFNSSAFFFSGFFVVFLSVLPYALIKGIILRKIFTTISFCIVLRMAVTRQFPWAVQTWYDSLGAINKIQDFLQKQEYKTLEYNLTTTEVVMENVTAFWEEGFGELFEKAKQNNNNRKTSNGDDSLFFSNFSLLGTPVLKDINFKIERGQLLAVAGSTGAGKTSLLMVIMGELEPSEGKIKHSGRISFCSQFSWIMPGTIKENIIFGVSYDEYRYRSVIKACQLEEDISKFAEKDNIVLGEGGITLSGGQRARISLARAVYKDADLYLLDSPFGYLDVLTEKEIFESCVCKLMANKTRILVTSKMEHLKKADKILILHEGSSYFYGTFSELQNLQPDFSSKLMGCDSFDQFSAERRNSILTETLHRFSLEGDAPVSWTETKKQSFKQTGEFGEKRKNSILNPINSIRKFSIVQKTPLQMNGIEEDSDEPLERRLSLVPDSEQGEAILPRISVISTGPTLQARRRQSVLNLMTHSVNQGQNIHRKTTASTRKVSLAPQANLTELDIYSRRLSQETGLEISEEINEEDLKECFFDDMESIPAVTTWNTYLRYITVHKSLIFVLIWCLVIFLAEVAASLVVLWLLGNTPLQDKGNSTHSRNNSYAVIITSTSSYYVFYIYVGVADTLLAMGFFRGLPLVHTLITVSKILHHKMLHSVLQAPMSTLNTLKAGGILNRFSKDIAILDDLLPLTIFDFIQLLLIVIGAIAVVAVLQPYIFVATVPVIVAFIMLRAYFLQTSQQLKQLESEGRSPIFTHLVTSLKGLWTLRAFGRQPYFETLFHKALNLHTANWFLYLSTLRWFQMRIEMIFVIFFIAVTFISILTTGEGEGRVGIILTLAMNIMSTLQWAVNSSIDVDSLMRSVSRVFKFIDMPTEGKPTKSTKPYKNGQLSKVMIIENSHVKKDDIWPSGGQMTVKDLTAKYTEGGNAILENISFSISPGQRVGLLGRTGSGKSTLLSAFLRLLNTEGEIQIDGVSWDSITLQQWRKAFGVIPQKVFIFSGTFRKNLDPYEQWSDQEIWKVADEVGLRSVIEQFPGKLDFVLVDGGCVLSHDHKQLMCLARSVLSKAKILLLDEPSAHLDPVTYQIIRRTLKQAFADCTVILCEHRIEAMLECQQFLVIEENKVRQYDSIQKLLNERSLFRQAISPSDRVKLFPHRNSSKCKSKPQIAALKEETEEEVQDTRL
T2 sequence (P13569 whole entry G551D): as the sequence (P13569 whole entry G1349D) above, with G551D, D1349G counted along it
Chain of G551D CFTR (P13569 whole entry G551D): as the sequence (P13569 whole entry G1349D) above, with G551D, D1349G counted along it
T5 sequence (P13569 whole entry S549N): as the sequence (P13569 whole entry G1349D) above, with S549N, D1349G counted along it
T3 sequence (P13569 whole entry G178R): as the sequence (P13569 whole entry G1349D) above, with G178R, D1349G counted along it
T1 sequence (P13569 with tags, fused parts or gaps DEL508-508): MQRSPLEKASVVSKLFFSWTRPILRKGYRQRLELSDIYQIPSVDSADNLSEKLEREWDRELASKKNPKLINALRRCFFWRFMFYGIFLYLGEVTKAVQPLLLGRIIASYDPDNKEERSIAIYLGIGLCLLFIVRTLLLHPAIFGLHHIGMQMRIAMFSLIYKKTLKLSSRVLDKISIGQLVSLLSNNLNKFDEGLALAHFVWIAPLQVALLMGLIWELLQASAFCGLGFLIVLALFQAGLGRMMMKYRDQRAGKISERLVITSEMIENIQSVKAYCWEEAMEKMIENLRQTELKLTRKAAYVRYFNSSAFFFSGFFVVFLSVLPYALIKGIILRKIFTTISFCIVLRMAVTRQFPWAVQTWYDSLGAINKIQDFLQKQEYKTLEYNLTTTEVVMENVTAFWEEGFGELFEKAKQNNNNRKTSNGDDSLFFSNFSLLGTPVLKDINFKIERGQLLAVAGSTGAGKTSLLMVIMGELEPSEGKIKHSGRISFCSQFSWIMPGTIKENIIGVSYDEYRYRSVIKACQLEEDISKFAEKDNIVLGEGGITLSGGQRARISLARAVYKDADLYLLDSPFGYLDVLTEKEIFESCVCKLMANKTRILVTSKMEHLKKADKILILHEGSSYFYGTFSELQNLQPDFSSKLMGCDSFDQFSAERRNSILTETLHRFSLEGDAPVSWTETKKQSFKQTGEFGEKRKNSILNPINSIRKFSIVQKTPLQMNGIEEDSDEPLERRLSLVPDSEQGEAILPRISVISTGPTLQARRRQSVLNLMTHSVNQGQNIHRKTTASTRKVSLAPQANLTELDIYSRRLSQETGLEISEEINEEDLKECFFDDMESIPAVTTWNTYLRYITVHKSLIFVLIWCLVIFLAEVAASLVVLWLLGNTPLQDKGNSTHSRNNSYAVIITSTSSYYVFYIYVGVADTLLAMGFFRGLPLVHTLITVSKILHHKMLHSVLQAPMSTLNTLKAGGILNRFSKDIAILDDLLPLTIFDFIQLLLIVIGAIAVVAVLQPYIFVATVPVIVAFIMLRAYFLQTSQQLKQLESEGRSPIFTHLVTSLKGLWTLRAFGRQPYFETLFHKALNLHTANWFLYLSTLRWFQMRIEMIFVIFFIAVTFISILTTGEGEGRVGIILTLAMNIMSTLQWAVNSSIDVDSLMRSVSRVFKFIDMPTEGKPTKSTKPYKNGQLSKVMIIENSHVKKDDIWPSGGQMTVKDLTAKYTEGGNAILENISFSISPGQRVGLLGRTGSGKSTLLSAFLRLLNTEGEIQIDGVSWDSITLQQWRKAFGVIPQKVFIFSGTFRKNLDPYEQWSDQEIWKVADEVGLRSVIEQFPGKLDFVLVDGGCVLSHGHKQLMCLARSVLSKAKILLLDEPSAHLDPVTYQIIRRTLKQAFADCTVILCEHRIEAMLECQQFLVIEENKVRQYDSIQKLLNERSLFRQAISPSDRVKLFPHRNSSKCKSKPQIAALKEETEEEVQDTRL
T6 sequence (P13569 whole entry R117H): as the sequence (P13569 whole entry G1349D) above, with R117H, D1349G counted along it

SMILES	% Activation [1]	EC50 [1]	% Activation [2]	EC50 [2]	EC50 [3]	% Activation [4]	EC50 [4]	% Activation [5]	EC50 [5]	% Activation [6]	EC50 [6]	% Activation [7]	EC50 [7]
CC(CO)CNC(=O)c1ncc(S(=O)(=O)c2ccc(OC(F)(F)F)cc2)cc1N (stereo not drawn) [Compound 24, 3-amino-N-(3-hydroxy-2-methylpropyl)-5-{[4-(trifluoromethoxy)phenyl]sulfonyl}pyridine-2-carboxamide]	106.6%	21.4 nM	52.2%	423 nM	2830 nM								
C[C@@H](O)CNC(=O)c1ncc(S(=O)(=O)c2ccc(OC(F)(F)F)cc2)cc1N [Compound 20, 3-amino-N-[(2R)-2-hydroxypropyl]-5-{[4-(trifluoromethoxy)phenyl]sulfonyl}pyridine-2-carboxamide]	98.5%	29.7 nM	64.8%	893 nM	3700 nM								
Nc1cc(S(=O)(=O)c2ccc(OC(F)(F)F)cc2)cnc1C(=O)NCC1(O)CC1 [Compound 15, 3-amino-N-[(1-hydroxycyclopropyl)methyl]-5-{[4-(trifluoromethoxy)phenyl]sulfonyl}pyridine-2-carboxamide]	109.0%	2.6 nM	69.3%	361 nM	669 nM								
CC(C)(O)CNC(=O)c1ncc(S(=O)(=O)c2ccc(C(F)(F)F)cc2)cc1N [Compound 11, 3-amino-N-(2-hydroxy-2-methylpropyl)-5-{[4-(trifluoromethyl)phenyl]sulfonyl}pyridine-2-carboxamide]	113.5%	21.7 nM	75.7%	835 nM	1350 nM	95.3%	442 nM	90.4%	1600 nM	84.1%	945 nM	90.4%	296 nM
COCC(O)CNC(=O)c1ncc(S(=O)(=O)c2ccc(OC(F)(F)F)cc2)cc1N (stereo not drawn) [Compound 3, 3-amino-N-(2-hydroxy-3-methoxypropyl)-5-{[4-(trifluoromethoxy)phenyl]sulfonyl}pyridine-2-carboxamide]	109.7%	17.7 nM	73.9%	1980 nM	1980 nM	98.2%	392 nM	83.2%	291 nM	91.8%	839 nM	102.0%	451 nM
CC(C)(O)C1CN(C(=O)c2ncc(S(=O)(=O)c3ccc(C(F)(F)F)cc3)cc2N)C1 [Compound 165, (3-amino-5-{[4-(trifluoromethyl)phenyl]sulfonyl}pyridin-2-yl)[3-(2-hydroxypropan-2-yl)azetidin-1-yl]methanone]	115.2%	10.9 nM	55.0%	287 nM	116 nM			87.6%	214 nM			94.2%	92.8 nM
C[C@H](O)CNC(=O)c1ncc(S(=O)(=O)c2ccccc2OC(F)(F)F)cc1N [Compound 82, 3-amino-N-[(2S)-2-hydroxypropyl]-5-{[2-(trifluoromethoxy)phenyl]sulfonyl}pyridine-2-carboxamide]	106.0%	2.7 nM	89.9%	795 nM		106.7%	84.7 nM	92.74%	102 nM	106.9%	122 nM	128.3%	1050 nM
COC[C@H](O)CNC(=O)c1ncc(S(=O)(=O)c2ccccc2OC(F)(F)F)cc1N [Compound 177, 3-amino-N-[(2R)-2-hydroxy-3-methoxypropyl]-5-{[2-(trifluoromethoxy)phenyl]sulfonyl}pyridine-2-carboxamide]	102.1%	3.6 nM	91.4%	430 nM		104.0%	77.8 nM	96.0%	97.9 nM	104.0%	80.4 nM	103.7%	253 nM
Nc1cc(S(=O)(=O)c2ccccc2OC(F)(F)F)cnc1C(=O)N1CC(F)(F)C1 [Compound 78, (3-amino-5-{[2-(trifluoromethoxy)phenyl]sulfonyl}pyridin-2-yl)(3,3-difluoroazetidin-1-yl)methanone]	123.0%	2.2 nM	55.9%	609 nM		73%	58.1 nM	85.36%	52.3 nM	80.37%	116 nM	89.74%	59.5 nM
Nc1cc(S(=O)(=O)c2ccc(OC(F)(F)F)cc2)cnc1C(=O)N1CC(O)(C2CC2)C1 [Compound 86, (3-amino-5-{[4-(trifluoromethoxy)phenyl]sulfonyl}pyridin-2-yl)(3-cyclopropyl-3-hydroxyazetidin-1-yl)methanone]	122.0%	3.1 nM	69.3%	332 nM		78.08%	32.5 nM	85.79%	55.3 nM	98.52%	139 nM	89.91%	59.5 nM
Nc1cc(S(=O)(=O)c2ccc(C(F)(F)F)cc2)cnc1C(=O)NCC(F)(F)CO [Compound 241, 3-amino-N-(2,2-difluoro-3-hydroxypropyl)-5-{[4-(trifluoromethyl)phenyl]sulfonyl}pyridine-2-carboxamide]	117.0%	11.6 nM	65.9%	675 nM		84.5%	502 nM	71.0%	1110 nM	90.7%	691 nM	103.0%	608 nM
Nc1cc(S(=O)(=O)c2ccc(OC(F)(F)F)cc2)cnc1C(=O)N[C@@H]1CCCC[C@H]1O (racemic) [Compound 17, rac-3-amino-N-[(1R,2R)-2-hydroxycyclohexyl]-5-{[4-(trifluoromethoxy)phenyl]sulfonyl}pyridine-2-carboxamide]	113.0%	8.8 nM	82.7%	1640 nM	1130 nM								
CC(C)(CO)CNC(=O)c1ncc(S(=O)(=O)c2ccc(OC(F)(F)F)cc2)cc1N [Compound 18, 3-amino-N-(3-hydroxy-2,2-dimethylpropyl)-5-{[4-(trifluoromethoxy)phenyl]sulfonyl}pyridine-2-carboxamide]	109.1%	43.1 nM	79.2%	> 3330 nM	1430 nM								
